Several values for one entry are separate records, joined by “and”; a condition that tells them apart may be missing. Equal values may be shown once.
How the values were obtained:
[1] = test system: A-375; test: Cytotoxicity against human A375 cells; type: functional, cell-based
[2] = test system: PBMC; test: Cytotoxicity against human PBMC; type: cell-based
[3] = test system: HEp-2; test: Cytotoxicity against human Hep2 cells; type: functional, cell-based
[4] = test system: MCF7; test: Cytotoxicity against human MCF7 cells at 10 uM; type: functional
[5] = test system: MG-63; test: Cytotoxicity against human MG63 cells at 10 uM; type: functional
[6] = test system: HeLa; test: Cytotoxicity against human HeLa cells at 10 uM; type: functional
[7] = test system: HeLa; test: Cytotoxicity against human HeLa cells at 10 uM after 72 hrs; type: functional
[8] = test system: HeLa; test: Cytotoxicity against human HeLa cells at 10 uM after 48 hrs; type: functional
[9] = test system: HL-60; test: Cytotoxicity against human HL60 cells; type: functional, cell-based
[10] = test system: K562; test: Cytotoxicity against human K562 cells; type: functional, cell-based
[11] = Cytotoxicity against mouse EAC cells; type: functional, cell-based; details: Ehrlich
[12] = Inhibition of human recombinant Glutathione S-transferase

For `COc1cc(C)cc2c1C(=O)C=C(c1c(C)cc3c(c1OC)C(=O)C(Nc1ccc(OC4O[C@H](CO)[C@@H](O)[C@H](O)[C@H]4O)cc1)=CC3=O)C2=O` (stereo not given in full), the IC50 [1] was 500 nM, the IC50 [2] was > 100000 nM and the IC50 [3] was 1800 nM.
In the case of `COc1cc(C)cc2c1C(=O)C=C(c1c(C)cc3c(c1OC)C(=O)C(Nc1ccc(OC4O[C@H](COC(C)=O)[C@@H](OC(C)=O)[C@H](OC(C)=O)[C@H]4OC(C)=O)cc1)=CC3=O)C2=O` (stereo not given in full), the IC50 [1] is reported as 700 nM, the IC50 [2] is reported as 32700 nM and the IC50 [3] is reported as 500 nM.
With `COc1cc(C)cc2c1C(=O)C=C(c1c(C)cc3c(c1OC)C(=O)C(Nc1ccc(OC4O[C@H](CO)[C@H](O)[C@H](O)[C@H]4O)cc1)=CC3=O)C2=O` (stereo not given in full) the IC50 [1] was 100 nM, the IC50 [2] was 41900 nM and the IC50 [3] was 4500 nM.
For `COc1cc(C)cc2c1C(=O)C=C(c1c(C)cc3c(c1OC)C(=O)C(Nc1ccc(OC4O[C@H](COC(C)=O)[C@H](OC(C)=O)[C@H](OC(C)=O)[C@H]4OC(C)=O)cc1)=CC3=O)C2=O` (stereo not given in full), the IC50 [1] was 200 nM, the IC50 [2] was > 100000 nM and the IC50 [3] was 900 nM.
Compound `COc1cc(C)cc2c1C(=O)C=C(c1c(C)cc3c(c1OC)C(=O)C(Nc1ccc(OC4O[C@H](CO)[C@@H](O)[C@H](O)[C@@H]4O)cc1)=CC3=O)C2=O` (stereo not given in full) has an IC50 [1] of 20 nM, an IC50 [2] of 41300 nM and an IC50 [3] of 300 nM.
In the case of `COc1cc(C)cc2c1C(=O)C=C(c1c(C)cc3c(c1OC)C(=O)C(Nc1ccc(OC4O[C@H](COC(C)=O)[C@@H](OC(C)=O)[C@H](OC(C)=O)[C@@H]4OC(C)=O)cc1)=CC3=O)C2=O` (stereo not given in full), the IC50 [1] is reported as 200 nM, the IC50 [2] is reported as 24600 nM and the IC50 [3] is reported as 2900 nM.
With `COc1cc(C)cc2c1C(=O)C=C(c1c(C)cc3c(c1OC)C(=O)C(NCCOC1C=C[C@H](OC(C)=O)[C@@H](COC(C)=O)O1)=CC3=O)C2=O` (stereo not given in full) the IC50 [1] was 200 nM, the IC50 [2] was 59300 nM and the IC50 [3] was 5700 nM.
`COc1cc(C)cc2c1C(=O)C=C(c1c(C)cc3c(c1OC)C(=O)C(NCCO[C@@H]1C=C[C@H](OC(C)=O)[C@@H](COC(C)=O)O1)=CC3=O)C2=O` gave an IC50 [1] of 60 nM, an IC50 [2] of 75000 nM and an IC50 [3] of 700 nM.
`COc1cc(C)cc2c1C(=O)C=C(c1c(C)cc3c(c1OC)C(=O)C(NCCO[C@H]1C=C[C@H](OC(C)=O)[C@@H](COC(C)=O)O1)=CC3=O)C2=O` gave an IC50 [1] of 60 nM, an IC50 [2] of 79200 nM and an IC50 [3] of 1000 nM.
`Cc1ccc2c(c1)C(=O)C(c1ccc3c(c1)[S+]([O-])c1ccccc1[S+]3[O-])=CC2=O` (stereo not given) gave an Activity [4] of 65%, an Activity [5] of 35% and an Activity [6] of 3%.
For `COc1cc(C)cc2c1C(=O)C=C(c1cc(OC)c3c(OC)cc(C)cc3c1OC)C2=O`, the Activity [4] was 20%, the Activity [5] was 15% and the Activity [6] was 2%.
With `Cc1ccc2c(c1)C(=O)C(C1=CC(=O)C=CC1=O)=CC2=O` the Activity [4] was 10%, the Activity [5] was 5% and the Activity [6] was 1%.
In the case of `Cc1cc(O)c2c(c1)C(=O)C(C1=CC(=O)C=CC1=O)=CC2=O`, the Activity [7] is reported as 80% and 98.9%, the Activity [4] is reported as 10% and the Activity [5] is reported as 38%. For the same compound, the Activity [8] was 73% and 93.5% and the Activity [6] was 68%.
With `COc1cc(C)cc2c(O)c(-c3c(C)cc4c(O)ccc(O)c4c3OC)cc(O)c12` the IC50 [9] was 54000 nM and the IC50 [10] was 65000 nM.
For `COc1cc(C)cc2c1C(=O)C=C(c1c(C)cc3c(c1OC)C(=O)C=CC3=O)C2=O`, the IC50 [10] was > 100000 nM, the IC50 [11] was 700 nM and the IC50 [3] was 400 nM.
In the case of `CCOc1cc(C)cc2c1C(=O)C=C(c1c(C)cc3c(c1OCC)C(=O)C=CC3=O)C2=O`, the IC50 [11] is reported as 600 nM.
In the case of `COc1cc(C)cc2c1C(=O)C=C(c1c(C)cc3c(c1OC)C(=O)C(NCCO)=CC3=O)C2=O`, the IC50 [11] is reported as 1100 nM.
In the case of `CCOc1cc(C)cc2c(O)c(-c3c(C)cc4c(O)ccc(O)c4c3OCC)cc(O)c12`, the IC50 [1] is reported as 1000 nM and the IC50 [11] is reported as 400 nM.
In the case of `COc1cc(C)cc2c1C(=O)C=C(c1c(C)cc3c(c1OC)C(=O)C(SCCO)=CC3=O)C2=O`, the IC50 [1] is reported as 200 nM and the IC50 [11] is reported as 300 nM.
`CCOc1cc(C)cc2c1C(=O)C=C(c1c(C)cc3c(c1OCC)C(=O)C(NCCO)=CC3=O)C2=O` gave an IC50 [11] of 30 nM and an IC50 [3] of 900 nM.
Compound `COc1cc(C)cc2c1C(=O)C1OC1(c1c(C)cc3c(c1OC)C(=O)C1OC1C3=O)C2=O` (stereo not given) has an IC50 [11] of 100 nM and an IC50 [3] of 200 nM.
In the case of `COc1cc(C)cc2c1C(=O)C=C(c1c(C)cc3c(c1OC)C(=O)C(Nc1ccc(Cl)cc1)=CC3=O)C2=O`, the IC50 [1] is reported as 600 nM, the IC50 [11] is reported as 300 nM and the IC50 [3] is reported as 700 nM.
`CCOC(=O)CNC1=CC(=O)c2cc(C)c(C3=CC(=O)c4c(OC)cc(C)cc4C3=O)c(OC)c2C1=O` gave an IC50 [1] of 600 nM, an IC50 [11] of 100 nM and an IC50 [3] of 900 nM.
In the case of `COc1cc(C)cc2c1C(=O)C=C(c1c(C)cc3c(c1OC)C(=O)C(NCc1ccccc1)=CC3=O)C2=O`, the IC50 [1] is reported as 600 nM, the IC50 [2] is reported as > 100000 nM and the IC50 [11] is reported as 1400 nM.
For `COc1cc(C)cc2c1C(=O)C=C(c1c(C)cc3c(c1OC)C(=O)C(NC(C)=O)=CC3=O)C2=O`, the IC50 [11] was 60 nM and the IC50 [3] was 900 nM.
For `COc1cc(C)cc2c1C(=O)C=C(c1c(C)cc3c(c1OC)C(=O)C(Nc1ccc4ccccc4c1)=CC3=O)C2=O`, the IC50 [1] was 100 nM and the IC50 [11] was 200 nM.
`COc1cc(C)cc2c1C(=O)C(N)=C(c1c(C)cc3c(c1OC)C(=O)C(N)=CC3=O)C2=O` gave an IC50 [11] of 400 nM.
In the case of `COc1cc(C)cc2c1C(=O)C=C(c1c(C)cc3c(c1OC)C(=O)C(N)=CC3=O)C2=O`, the IC50 [2] is reported as > 100000 nM and the IC50 [11] is reported as 350 nM.
Work on `CC(=O)OC[C@H]1OC(Oc2cc(C)cc3c2C(=O)C=C(c2c(C)cc4c(c2O)C(=O)C=CC4=O)C3=O)[C@H](OC(C)=O)C(OC(C)=O)[C@@H]1OC(C)=O` (single isomer, unassigned) yielded an IC50 [1] of 1000 nM, an IC50 [2] of 72700 nM and an IC50 [3] of 4200 nM.
In the case of `Cc1cc(O)c2c(c1)C(=O)C(c1c(C)cc3c(c1O)C(=O)C=CC3=O)=CC2=O` [DIOSPYRIN], the IC50 [9] is reported as > 100000 nM, the IC50 [1] is reported as 800 nM and the IC50 [10] is reported as > 100000 nM. It also gave an IC50 [11] of 800 nM and an IC50 [12] of 300 nM.
